Source: paper PMC12881674, “Activation of TRPV3 channels in bladder cancer cells stimulates ATP release” (Molecular Pharmacology, 2025)

Biological target: T1, mouse TRPV3 (Mus musculus, UniProt Q8K424)
T1 construct: expressed in transfected cells; host or cells: HEK293
T1 sequence (Q8K424 1-791): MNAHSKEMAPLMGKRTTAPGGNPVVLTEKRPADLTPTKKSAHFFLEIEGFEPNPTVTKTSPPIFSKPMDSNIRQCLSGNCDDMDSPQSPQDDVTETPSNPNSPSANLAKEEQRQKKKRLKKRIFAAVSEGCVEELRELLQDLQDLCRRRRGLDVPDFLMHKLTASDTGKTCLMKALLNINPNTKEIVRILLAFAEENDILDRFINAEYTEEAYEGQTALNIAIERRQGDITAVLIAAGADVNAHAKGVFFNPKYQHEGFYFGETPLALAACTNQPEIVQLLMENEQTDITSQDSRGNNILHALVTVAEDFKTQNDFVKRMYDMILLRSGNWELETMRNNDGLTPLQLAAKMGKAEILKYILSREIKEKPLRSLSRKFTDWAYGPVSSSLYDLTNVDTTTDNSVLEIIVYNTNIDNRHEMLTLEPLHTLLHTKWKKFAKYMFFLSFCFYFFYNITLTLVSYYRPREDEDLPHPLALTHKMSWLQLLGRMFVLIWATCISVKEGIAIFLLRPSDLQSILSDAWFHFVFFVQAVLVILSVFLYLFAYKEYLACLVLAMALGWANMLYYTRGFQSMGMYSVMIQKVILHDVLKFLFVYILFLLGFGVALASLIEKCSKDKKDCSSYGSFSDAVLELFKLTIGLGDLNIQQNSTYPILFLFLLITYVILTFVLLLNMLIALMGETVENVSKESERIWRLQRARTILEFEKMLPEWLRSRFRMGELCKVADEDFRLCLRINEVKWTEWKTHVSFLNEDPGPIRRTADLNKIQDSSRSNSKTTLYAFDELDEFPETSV
Experiment: fluo-4 fluorometric Ca2+ assay, concentration-response, HEK cells expressing mouse TRPV3
Type: cell-based
Conditions: HEK cells expressing mouse TRPV3, fluo-4, room temperature, mean ± SD back-transformed from log space, n=5; read-out: EC50 for mouse TRPV3 activation
Excerpt: KU-19-19 (DSMZ no. ACC 395), CAL-29 (DSMZ no. ACC 515), 647-V (DSMZ no. ACC 414), RT-4 (DSMZ no. ACC 412), and RT-112 (DSMZ no. ACC 418) bladder cancer cell lines were obtained from the Leibniz Institute DSMZ (German Collection of Microorganisms and Cell Cultures). Human TRPV3 (NM_145068, purchased from OriGene) and mouse TRPV3 (NM_001371006), rat TRPV1, mouse TRPV2, mouse TRPV4, human TRPM2, human TRPM8, and human TRPA1 were stably transfected in HEK293 cells as described before.[27] […]
All fluorometric Ca^2+ assays were performed in HBS buffer at room temperature. […] For the primary compound screening and the generation of concentration-response analyses, a robotic liquid handling station (Freedom Evo 150; Tecan) with a built-in custom-made fluorescence plate imager was used. […] Fluorescence was excited using a 470-nm light-emitting diode, and emitted light was imaged through a 515-nm–long pass filter with a cooled Zyla 5.5 camera (Andor). Fluorescence was recorded and processed under the control of the μ-Manager 2.0 gamma software (https://micro-manager.org.[28]). After recording baseline fluorescence, compounds were dispensed into the wells via the liquid handling device. […] For further analysis, fluorescence signals were calculated for each well, corrected for background intensities and normalized to the initial signals. […]

EC50: 2000 ± 1400 nM
SMILES: COC(=O)C12CN(Cc3ccccc3)CC1(C(=O)OC)CN(Cc1ccccc1)C2 (stereo not shown) [AV3-1]
